Test results: patent US20220332764A1, “T CELL EPITOPES OF HCMV AND USES OF THEREOF” (EBERHARD KARLS UNIVERSITÄT TÜBINGEN, priority 2019, published 2022)
“And” between values parts separate entries of the source, which are not always exact repeats. Equal entries are not always repeated. Where two headings read alike, the source gives them in different places.

Assays:
[1] = system: CD8+ T cells of HLA-matched healthy donors; conditions: for Tetramer-staining: after 12 day amplification
[2] = system: PBMCs of healthy HCMV-seropositive donors; experiment: IFNγ ELISpot after 12 day stimulation (memory T-cell response); type: cell-based, human; conditions: for % Positive donors (after 12 days of stimulation): IFNγ ELISpot, HLA-matched seropositive donors; for ELISpot response rate (12 d stim.): 12-day amplification with IL-2 in vitro; for Positive donors as tested: positive / tested HLA-matched seropositive donors, positive: >10 spots/well and at least 3-fold negative control
From the text: (§1) PHA was used as positive control.

[3] = system: PBMCs of healthy HCMV-seropositive donors; experiment: ex vivo IFNγ ELISpot without prestimulation; type: cell-based, human; conditions: for % Positive donors (ex vivo): IFNγ ELISpot ex vivo, donors previously tested positive; for ELISpot response rate (ex vivo): donors positively tested in ELISpots with 12d stimulation
From the text: as §1

[4] = system: CD8+ / CD4+ T cells of donor PBMCs; experiment: Intracellular cytokine staining (ICS; IFNγ, TNFα, CD107a); type: cell-based, human; conditions: for Intracellular staining: responding T-cell subset; for Intracellular cytokine staining: responding T-cell subset after peptide stimulation
From the text: PHA was used as positive control. […] (Cytofix/Cytoperm, BD Biosciences).

| Sequence | % Positive donors (after 12 days of stimulation) [2] [%] | Positive donors as tested [2] | % Positive donors (ex vivo) [3] [%] | Intracellular cytokine staining [4] | also measured |
| --- | --- | --- | --- | --- | --- |
| ALWDVALLEV (listed as Human cytomegalovirus) [SEQ ID NO: 2] | 71.4 | 10/14 | 25.0 | CD8 | Tetramer staining ([1]; Tested HLA A*02:01): positive; Tetramer-staining [1]: Positive; ELISpot response rate (12 d stim.) ([2]; Tested HLA A*02:01): 71.4; ELISpot response rate (ex vivo) ([3]; Tested HLA A*02:01): 25.0; Intracellular staining ([4]; Tested HLA A*02:01): CD8 |
| DARSRIHNV (listed as Human cytomegalovirus) [SEQ ID NO: 89] | 53.3 | 8/15 | – | CD8 | Tetramer staining ([1]; Tested HLA B*51:01): positive; Tetramer-staining [1]: Positive; ELISpot response rate (12 d stim.) ([2]; Tested HLA B*51:01): 53.3; ELISpot response rate (ex vivo) ([3]; Tested HLA B*51:01): 20.0; Intracellular staining ([4]; Tested HLA B*51:01): CD8 |
| DEQVSKRSW (listed as Human cytomegalovirus) [SEQ ID NO: 42] | 45.8 | 11/24 | 12.5 | CD8 | Tetramer-staining [1]: Positive |
| FLDENFKQL (listed as Human cytomegalovirus) [SEQ ID NO: 5] | 47.6 | 10/21 | 37.5 | CD4 | Tetramer-staining [1]: Negative |
| FPVEVRSHV (listed as Human cytomegalovirus) [SEQ ID NO: 88] | 65.2 | 15/23 | 0.0 | CD8 | Tetramer staining ([1]; Tested HLA B*51:01): positive; Tetramer-staining [1]: Positive; ELISpot response rate (12 d stim.) ([2]; Tested HLA B*51:01): 65.2; ELISpot response rate (ex vivo) ([3]; Tested HLA B*51:01): 0.0; Intracellular staining ([4]; Tested HLA B*51:01): CD8 |
| GLLAHIPALGV (listed as Human cytomegalovirus) [SEQ ID NO: 8] | 27.3 | 6/22 | 0.0 | – | – |
| KLGYRPHAK (listed as Human cytomegalovirus) [SEQ ID NO: 71] | 37.9 | 11/29 | – | CD8 | Tetramer-staining [1]: Positive |
| RLQPNVPLV (listed as Human cytomegalovirus) [SEQ ID NO: 7] | 33.3 | 6/18 | 0.0 | – | – |
| RPFPSTHQL (listed as Human cytomegalovirus) [SEQ ID NO: 31] | 30.8 | 4/13 | 0.0 | – | – |
| RSALGPFVGK (listed as Human cytomegalovirus) [SEQ ID NO: 69] | 40.0 | 6/15 | – | CD8 | Tetramer-staining [1]: Positive |
| SLDRFIVQY (listed as Human cytomegalovirus) [SEQ ID NO: 57] | 35.7 | 5/14 | – | CD4 | – |
| SLFYRAVAL (listed as Human cytomegalovirus) [SEQ ID NO: 98] | – | 5/13 and 4/22 | 12.5 | – | Binding to more than one HLA-I allotype ([2]; stimulated T cells of different donors harboring either of two well predicted alleles): potentially able to bind to more than one HLA-I allotype |
| SLYEANPEL (listed as Human cytomegalovirus) [SEQ ID NO: 10] | 23.5 | 4/17 | – | – | – |
| SPHPPTSVFL (listed as Human cytomegalovirus) [SEQ ID NO: 33] | 25.0 | 3/12 | – | – | – |
| SVRLPYMYK (listed as Human cytomegalovirus) [SEQ ID NO: 75] | 25.0 | 4/16 | – | – | – |
| SVSSAPLNK (listed as Human cytomegalovirus) [SEQ ID NO: 79] | 7.1 | 1/14 | – | – | – |
| TILDKILNV (listed as Human cytomegalovirus) [SEQ ID NO: 11] | 20.0 | 4/20 | – | – | – |
| TLINGVWVV (listed as Human cytomegalovirus) [SEQ ID NO: 12] | – | 2/11 | – | – | – |
| TPLLKRLPL (listed as Human cytomegalovirus) [SEQ ID NO: 82] | 28.6 | 4/14 | – | – | – |
| TSETHFGNY (listed as Human cytomegalovirus) [SEQ ID NO: 59] | 20.0 | 3/15 | – | – | – |
| VMKFKETSF (listed as Human cytomegalovirus) [SEQ ID NO: 81] | – | 5/13 | – | – | – |
| VPAAVYTTV (listed as Human cytomegalovirus) [SEQ ID NO: 93] | 33.3 | 5/15 | – | – | – |
| VTDPEHLMM (listed as Human cytomegalovirus) [SEQ ID NO: 64] | 14.3 | 2/14 | – | – | – |
| VTDYGNVAFKY (listed as Human cytomegalovirus) [SEQ ID NO: 61] | 18.8 | 3/16 | – | – | – |
| YSDRRDHVWSY (listed as Human cytomegalovirus) [SEQ ID NO: 66] | 6.3 | 1/16 | – | – | – |
| YTSRGALYLY (listed as Human cytomegalovirus) [SEQ ID NO: 58] | 21.4 | 3/14 | – | – | – |
